The results in this text go back to US20110039289A1, “FLUOROGENIC PEPTIDES AND THEIR METHOD OF PRODUCTION” (priority 2008, published 2011).

Series [1] can be described thus: Fluorescence lifetime by time correlated single photon counting. Conditions: 2-aminoacridone attached directly to the α-carboxylic acid group.
Procedure: The fluorescence lifetimes of the synthesised peptides recorded above were measured by time correlated single photon counting. Peptides were dissolved in aqueous buffer solutions and excited at 405 nm using a pulsed solid state laser diode (Picoquant LDH-405). Fluorescent emission was filtered through a narrow bandpass interference filter (480/20 nm) and single photons were detected by a photomultiplier tube detector (Hamamatsu R7400P) and counted using a fast timing board with histogramming memory (Ortec 9353).
The target of another series is T1, caspase 3 enzyme (Homo sapiens, UniProt P42574).
T1 sequence (P42574 29-175 limits assumed): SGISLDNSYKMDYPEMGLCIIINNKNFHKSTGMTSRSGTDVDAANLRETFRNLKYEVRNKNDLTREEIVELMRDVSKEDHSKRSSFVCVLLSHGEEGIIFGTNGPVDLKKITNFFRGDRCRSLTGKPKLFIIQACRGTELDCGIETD
T1 sequence (P42574 176-277 limits assumed): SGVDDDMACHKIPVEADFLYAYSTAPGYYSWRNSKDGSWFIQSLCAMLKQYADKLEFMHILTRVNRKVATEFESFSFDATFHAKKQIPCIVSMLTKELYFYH
Kind of series: Cleavage of fluorogenic peptides by caspase 3 (Example 3, FIG. 1). The class given is biochemical. Conditions: 1 mM Zn2+. The text has this: Caspase 3 cleaves WSDEVD-(2aa2) and WSDEVD-(2aa6) at the second aspartic acid residue.
PT14 peptide is WSDEVD-PT14, a conventionally labeled peptide, where PT14 is the Puretime 14 moiety. PT14 peptide is also known as peptide 10, but is not made in accordance with the method of the present invention. Puretime 14 is available from AssayMetrics Limited, Cardiff, UK.

Consider `CC(=O)N[C@@H](Cc1ccc(O)cc1)C(=O)Nc1ccc2[nH]c3ccccc3c(=O)c2c1`, for which the “fluorescence lifetime of adducts of 2-aminoacridone” value in series [1] is 9.4 nanoseconds.
Same read-out and setting: under `CC(=O)N[C@@H](C)C(=O)Nc1ccc2[nH]c3ccccc3c(=O)c2c1` stands 18.1 nanoseconds.
Take zinc ions [reference compound]: the “effect on the action of caspase 3 enzyme” value at caspase 3 enzyme was “inhibited the action of the enzyme”.
`CC(=O)N[C@@H](Cc1c[nH]c2ccccc12)C(=O)Nc1ccc2[nH]c3ccccc3c(=O)c2c1`: in series [1], the “fluorescence lifetime of adducts of 2-aminoacridone” value was 3.0 nanoseconds.
